Patent US5041355A, “High contrast photographic element including an aryl sulfonamidophenyl hydrazide containing ethyleneoxy groups” (Eastman Kodak Company, priority 1990, dated 1991)

Experiment: relative speed and contrast of silver halide coatings containing nucleator and incorporated booster, exposed and processed in developer
Conditions: for Relative Speed: 1 minute at 35° C., developer pH 10.5; for lower scale activity (speed): in words
Method: Each coating used in the following examples was prepared on a polyester support, using a mono-dispersed 0.24 μm AgBrI (2.5 mol % iodide) iridium-doped emulsion at 3.51 g/m^2 Ag, 2.54 g gel/m^2, and 1.08 g latex/m^2 where the latex is a copolymer of methyl acrylate, 2-acrylamido-2-methylpropane sulfonic acid, and 2-acetoacetoxyethylmethylacrylate. The silver halide emulsion was spectrally sensitized with 214 mg/Ag mol of anhydro-5,5'-dichloro-9-ethyl-3,3'-di-(3-sulfopropyl)oxacarbocyanine hydroxide, triethylene salt and the emulsion layer was overcoated with gelatin containing polymethylmethacrylate beads. The nucleating agent was added as a methanol solution to the emulsion melts at a level in millimoles (mM) per mole of silver as hereinafter indicated. An "incorporated booster" was added as a methanol solution in an amount of 64.6 milligrams per square meter of photographic element. The compound employed as the "incorporated booster" is represented by the formula: [drawing 8] where Pr represents n-propyl. Coatings were exposed for five seconds to a 3000° K. tungsten light source and processed for 1 minute at 35° C. in the developer solution.
To prepare the developer solution, a concentrate was prepared from the following ingredients:
The concentrate was diluted at a ratio of one part of concentrate to two parts of water to produce a working strength developing solution with a pH of 10.5.

[1] = concentration of nucleator 1.0 mM/Ag mole
[2] = concentration of nucleator 2.0 mM/Ag mole

| Compound | speed compared with Test 2 (Test 7 (1.0 mM/Ag mole) versus Test 2 (2.0 mM/Ag mole)) | Relative Speed [1] | Relative Speed [2] | lower scale activity (speed) | Relative Speed (concentration of nucleator 1.9 mM/Ag mole) |
| --- | --- | --- | --- | --- | --- |
| CCCCCCCOCCOCCOCCOCCOCCOCCOCCOCCOCCOc1ccc(S(=O)(=O)Nc2ccc(NNC=O)cc2)cc1 [hydrazide I-4] | somewhat greater speed | 105 | 110 | beneficial effects upon lower scale activity (speed) | – |
| CCCCCOCCOCCOCCOCCOc1ccc(S(=O)(=O)Nc2ccc(NNC=O)cc2)cc1OCCOCCOCCOCCOCCCCC [hydrazide I-8] | – | 98 | – | beneficial effects upon lower scale activity (speed) | 105 |
| CC(C)c1ccc(C(C)C)c(S(=O)(=O)Nc2ccc(NNC=O)cc2)c1 [reference compound] | – | 87 | 100 | – | – |
| CCCCCCCCOCCOCCOc1ccc(S(=O)(=O)Nc2ccc(NNC=O)cc2)cc1 [reference compound] | – | 87 | 93 | – | – |
